Test results as given in the supplement of paper PMC10307832.

What was measured:
Experiment in all cases: relative viability (nuclei count vs DMSO), 5 days (fraction); higher = more cells survive
LXF-289 = tested on: LXF-289
Summary of the method: (§1)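 A single step with final 0.05% Triton X-100, 1% formaldehyde and 1 ug/ml Hoechst fixed the cells and stained nuclei 5 days after treatment. Lung cancer cell lines in 1536-well plates had been treated by pin tool the day after seeding with one drug alone or a fixed anchor-drug dose plus five library-drug doses (not always all listed) in √10 steps, and nuclei were counted on 4× images. Relative viability is the ratio of nuclei in treated wells to nuclei in vehicle wells, taken as the median of duplicate plates.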

HCC-827 = tested on: HCC-827
Summary of the method: as §1

UMC-11 = tested on: UMC-11
Summary of the method: as §1

LCLC-103H = tested on: LCLC-103H
Summary of the method: as §1

COR-L23 = tested on: COR-L23
Summary of the method: as §1

NCI-H2085 = tested on: NCI-H2085
Summary of the method: as §1

NCI-H1975 = tested on: NCI-H1975
Summary of the method: as §1

PC-3 [JPC-3] = tested on: PC-3 [JPC-3]
Summary of the method: as §1

NCI-H23 = tested on: NCI-H23
Summary of the method: as §1

NCI-H2228 = tested on: NCI-H2228
Summary of the method: as §1

NCI-H2009 = tested on: NCI-H2009
Summary of the method: as §1

`CCNC(=O)c1noc(-c2cc(C(C)C)c(O)cc2O)c1-c1ccc(CN2CCOCC2)cc1` [Luminespib] + CC(C)C[C@H](NC(=O)[C@H](Cc1ccccc1)NC(=O)c1cnccn1)B(O)O [Bortezomib] (partner 0.002 µM) gave a relative viability (LXF-289; first compound 0.02 µM) of 1.04, a relative viability (LXF-289; first compound 0.06325 µM) of 0.373 and a relative viability (LXF-289; first compound 0.2 µM) of 0.105. The relative viability (HCC-827; first compound 0.002 µM) was 1.04, the relative viability (HCC-827; first compound 0.006325 µM) was 0.999 and the relative viability (HCC-827; first compound 0.02 µM) was 1.11. For the same compound, the relative viability (HCC-827; first compound 0.06325 µM) was 1.22, the relative viability (HCC-827; first compound 0.2 µM) was 0.66 and the relative viability (UMC-11; first compound 0.002 µM) was 0.838. It also gave a relative viability (UMC-11; first compound 0.006325 µM) of 0.616, a relative viability (UMC-11; first compound 0.02 µM) of 0.365 and a relative viability (UMC-11; first compound 0.06325 µM) of 0.226. The relative viability (UMC-11; first compound 0.2 µM) was 0.087, the relative viability (LCLC-103H; first compound 0.002 µM) was 1.07 and the relative viability (LCLC-103H; first compound 0.006325 µM) was 1.01. It also gave a relative viability (LCLC-103H; first compound 0.02 µM) of 0.931, a relative viability (LCLC-103H; first compound 0.06325 µM) of 1 and a relative viability (LCLC-103H; first compound 0.2 µM) of 0.676. The relative viability (COR-L23; first compound 0.002 µM) was 1.02, the relative viability (COR-L23; first compound 0.006325 µM) was 0.85 and the relative viability (COR-L23; first compound 0.02 µM) was 0.718. For the same compound, the relative viability (COR-L23; first compound 0.06325 µM) was 0.079, the relative viability (COR-L23; first compound 0.2 µM) was 0.079 and the relative viability (NCI-H2085; first compound 0.002 µM) was 0.979. The relative viability (NCI-H2085; first compound 0.006325 µM) was 0.94, the relative viability (NCI-H2085; first compound 0.02 µM) was 0.818 and the relative viability (NCI-H2085; first compound 0.06325 µM) was 0.509. It also gave a relative viability (NCI-H2085; first compound 0.2 µM) of 0.344, a relative viability (NCI-H1975; first compound 0.002 µM) of 0.444 and a relative viability (NCI-H1975; first compound 0.006325 µM) of 0.389. For the same compound, the relative viability (NCI-H1975; first compound 0.02 µM) was 0.219, the relative viability (NCI-H1975; first compound 0.06325 µM) was 0.149 and the relative viability (NCI-H1975; first compound 0.2 µM) was 0.119. It also gave a relative viability (PC-3 [JPC-3]; first compound 0.002 µM) of 0.865, a relative viability (PC-3 [JPC-3]; first compound 0.006325 µM) of 0.812 and a relative viability (PC-3 [JPC-3]; first compound 0.02 µM) of 0.977. It also gave a relative viability (PC-3 [JPC-3]; first compound 0.06325 µM) of 0.942, a relative viability (PC-3 [JPC-3]; first compound 0.2 µM) of 0.503 and a relative viability (NCI-H23; first compound 0.002 µM) of 1.23. The relative viability (NCI-H23; first compound 0.006325 µM) was 1.05, the relative viability (NCI-H23; first compound 0.02 µM) was 0.733 and the relative viability (NCI-H23; first compound 0.06325 µM) was 0.119. It also gave a relative viability (NCI-H23; first compound 0.2 µM) of 0.117, a relative viability (NCI-H2228; first compound 0.002 µM) of 0.985 and a relative viability (NCI-H2228; first compound 0.006325 µM) of 0.952. The relative viability (NCI-H2228; first compound 0.02 µM) was 0.166, the relative viability (NCI-H2228; first compound 0.06325 µM) was 0.196 and the relative viability (NCI-H2228; first compound 0.2 µM) was 0.184. It also gave a relative viability (NCI-H2009; first compound 0.002 µM) of 1.16, a relative viability (NCI-H2009; first compound 0.006325 µM) of 0.841 and a relative viability (NCI-H2009; first compound 0.02 µM) of 0.956. It also gave a relative viability (NCI-H2009; first compound 0.06325 µM) of 0.0583 and a relative viability (NCI-H2009; first compound 0.2 µM) of 0.0609.
